Data from ChEMBL document CHEMBL2157997, “β-D-2'-α-F-2'-β-C-Methyl-6-O-substituted 3',5'-cyclic phosphate nucleotide prodrugs as inhibitors of hepatitis C virus replication: a structure-activity relationship study” (Bioorg Med Chem Lett, 2012).
Blank lines part the entries; values can stand above or below the compound they belong to.

Key:
[1] = Half life in rat plasma; assay type: ADME, cell-free
[2] = Cytotoxicity against human HuH7 cells; assay type: cell-based; settings: Huh-7 cells
Hepatitis C virus [3] = assay: Antiviral activity against Hepatitis C virus genotype 1b replicon infected in Lunet cells by luciferase reporter gene assay; assay type: functional, Hepacivirus hominis
[4] = Half life in human liver S9 fraction; assay type: ADME, subcellular
[5] = Half life in human plasma; assay type: ADME, cell-free
[6] = Half life in simulated intestinal fluid; assay type: physicochemical
Hepatitis C virus [7] = assay: Antiviral activity against Hepatitis C virus genotype 1b replicon infected in clone A cells assessed as inhibition of viral replication by RT-PCR analysis; assay type: functional, Hepacivirus hominis
[8] = Half life in simulated gastric fluid; assay type: physicochemical
[9] = Half life in rat at 40 mg/kg, po administered QD measured after 1 day; assay type: ADME, organism-based; set-up: dose 40 mg/kg, route oral; settings: in vivo
[10] = AUC (infinity) in rat at 40 mg/kg, po administered QD measured after 7 days; assay type: ADME, organism-based; set-up: time infinity, dose 40 mg/kg, route oral; settings: plasma
Huh-7 [11] = assay: Cytotoxicity against human HuH7 cells up to 100 uM after 8 days by MTT assay; assay type: cell-based; settings: huh-7, 192 h
Hepatocyte = assay: Prodrug activation in human primary hepatocytes assessed as assessed as Tmax of beta-D-2'-deoxy-2'-alpha-fluoro-2'-beta-C-methylguanosine triphosphate level at 100 uM; assay type: cell-based, Liver
Rattus norvegicus [12] = assay: Prodrug conversion in rat liver assessed as beta-D-2'-deoxy-2'-alpha-fluoro-2'-beta-C-methylguanosine triphosphate level at 40 mg/kg, po administered QD as repeated dose measured at 4 hrs post-dosing on day 8; assay type: ADME, organism-based; set-up: dose 40 mg/kg, route oral; settings: in vivo
Rattus norvegicus [13] = assay: Prodrug activation in rat liver assessed as free nucleoside level at 40 mg/kg, po administered QD as repeated dose measured at 4 hrs post-dosing on day 8; assay type: organism-based; set-up: dose 40 mg/kg, route oral; settings: in vivo
Rattus norvegicus [14] = assay: Prodrug activation in rat liver assessed as total nucleotide level at 40 mg/kg, po administered QD as repeated dose measured at 4 hrs post-dosing on day 8; assay type: organism-based; set-up: dose 40 mg/kg, route oral; settings: in vivo
[15] = Tmax in rat at 40 mg/kg, po administered QD measured after 1 day; assay type: ADME, organism-based; set-up: dose 40 mg/kg, route oral; settings: in vivo
[16] = Half life in rat at 40 mg/kg, po administered QD measured after 7 days; assay type: ADME, organism-based; set-up: dose 40 mg/kg, route oral; settings: in vivo
Huh-7 [17] = assay: Prodrug activation in human HuH7 cells infected with HCV genotype 1b assessed as Tmax of beta-D-2'-deoxy-2'-alpha-fluoro-2'-beta-C-methylguanosine triphosphate level at 100 uM; assay type: cell-based; settings: huh-7, 100 µM
[18] = AUC (infinity) in rat at 40 mg/kg, po administered QD measured after 1 day; assay type: ADME, organism-based; set-up: time infinity, dose 40 mg/kg, route oral; settings: plasma
HepG2 [19] = assay: Cytotoxicity against human HepG2 cells up to 100 uM after 8 days by MTT assay; assay type: cell-based; settings: hepg2, 192 h
Rattus norvegicus [20] = assay: Tlast in rat at 40 mg/kg, po administered QD measured after 7 days; assay type: ADME, organism-based; set-up: dose 40 mg/kg, route oral; settings: in vivo, 168 h
HepG2 [21] = assay: Mitochondrial toxicity against human HepG2 cells assessed as decrease in mitochondrial COX2 DNA up to 100 uM after 14 days by RT-PCR analysis; assay type: cell-based; settings: hepg2, 336 h
[22] = AUClast in rat at 40 mg/kg, po administered QD measured after 7 days; assay type: ADME, organism-based; set-up: dose 40 mg/kg, route oral; settings: plasma
HepG2 [23] = assay: Mitochondrial toxicity against human HepG2 cells assessed as decrease in ribosomal DNA up to 100 uM after 14 days by RT-PCR analysis; assay type: cell-based; settings: hepg2, 336 h
Rattus norvegicus [24] = assay: Prodrug activation in rat liver assessed as beta-D-2'-deoxy-2'-alpha-fluoro-2'-beta-C-methylguanosine monophosphate level at 40 mg/kg, po administered QD as repeated dose measured at 4 hrs post-dosing on day 8; assay type: organism-based; set-up: dose 40 mg/kg, route oral; settings: in vivo
[25] = Cmax in rat at 40 mg/kg, po administered QD measured after 1 day; assay type: ADME, organism-based; set-up: dose 40 mg/kg, route oral; settings: in vivo
CCRF-CEM [26] = assay: Cytotoxicity against human CEM cells up to 100 uM after 8 days by MTT assay; assay type: cell-based; settings: 192 h
Hepatitis C virus [27] = assay: Antiviral activity against Hepatitis C virus expressing NS5B S282T mutant by cell-based replicon assay; assay type: functional, Hepacivirus hominis
[28] = Cmax in rat at 40 mg/kg, po administered QD measured after 7 days; assay type: ADME, organism-based; set-up: dose 40 mg/kg, route oral; settings: in vivo
CCRF-CEM [29] = assay: Mitochondrial toxicity against human CEM cells assessed as decrease in ribosomal DNA up to 100 uM after 14 days by RT-PCR analysis; assay type: cell-based; settings: 336 h
Rattus norvegicus [30] = assay: Prodrug activation in rat liver assessed as beta-D-2'-deoxy-2'-alpha-fluoro-2'-beta-C-methylguanosine diphosphate level at 40 mg/kg, po administered QD as repeated dose measured at 4 hrs post-dosing on day 8; assay type: organism-based; set-up: dose 40 mg/kg, route oral; settings: in vivo
Rattus norvegicus [31] = assay: Tlast in rat at 40 mg/kg, po administered QD measured after 1 day; assay type: ADME, organism-based; set-up: dose 40 mg/kg, route oral; settings: in vivo, 24 h
[32] = Tmax in rat at 40 mg/kg, po administered QD measured after 7 days; assay type: ADME, organism-based; set-up: dose 40 mg/kg, route oral; settings: in vivo
BXPC-3 = assay: Cytotoxicity against human BxPC3 cells up to 100 uM after 8 days by MTT assay; assay type: cell-based; settings: bxpc-3, 192 h
CCRF-CEM [33] = assay: Mitochondrial toxicity against human CEM cells assessed as decrease in mitochondrial COX2 DNA up to 100 uM after 14 days by RT-PCR analysis; assay type: cell-based; settings: 336 h
[34] = AUClast in rat at 40 mg/kg, po administered QD measured after 1 day; assay type: ADME, organism-based; set-up: dose 40 mg/kg, route oral; settings: plasma

SMILES: CC(C)Oc1nc(N)nc2c1ncn2[C@@H]1O[C@@H]2COP(=O)(OC(C)C)O[C@H]2[C@@]1(C)F (some centres undefined)
half-life [1]: > 24 h
CC90 [2]: > 100000 nM
EC90 (Hepatitis C virus [3]): 740 nM
half-life [4]: 16.3 h
half-life [5]: > 24 h
half-life [6]: > 20 h
EC90 (Hepatitis C virus [7]): 677 nM
half-life [8]: > 20 h

SMILES: CC(C)Oc1nc(N)nc2c1ncn2[C@@H]1O[C@@H]2COP(=O)(OC3CCCC3)O[C@H]2[C@@]1(C)F (some centres undefined)
half-life [9]: 2.83 h
AUC(0-inf) [10]: 210 ng·h/mL
Activity (Huh-7 [11]): Non-toxic
Tmax (Hepatocyte): 24 h
Drug metabolism (Rattus norvegicus [12]): 2.02 nmol/g
Drug metabolism (Rattus norvegicus [13]): 7.47 nmol/g
Drug metabolism (Rattus norvegicus [14]): 40.5 nmol/g
half-life [1]: > 24 h
Tmax [15]: 3.67 h
half-life [16]: 3.32 h
Tmax (Huh-7 [17]): 72 h
CC90 [2]: > 100000 nM
AUC(0-inf) [18]: 770 ng·h/mL
Activity (HepG2 [19]): Non-toxic
Tlast (Rattus norvegicus [20]): 8 h
Activity (HepG2 [21]): Non-toxic
EC90 (Hepatitis C virus [3]): 60 nM
AUC(0-t) at 168 h [22]: 170 ng·h/mL
Activity (HepG2 [23]): Non-toxic
half-life [4]: > 24 h
Drug metabolism (Rattus norvegicus [24]): 20.85 nmol/g
Cmax [25]: 80 ng/mL
Activity (CCRF-CEM [26]): Non-toxic
EC90 (Hepatitis C virus [27]): 23 nM
half-life [5]: > 23.4 h
half-life [6]: 15 h
Cmax [28]: 50 ng/mL
Activity (CCRF-CEM [29]): Non-toxic
EC90 (Hepatitis C virus [7]): 184 nM
Drug metabolism (Rattus norvegicus [30]): 17.61 nmol/g
Tlast (Rattus norvegicus [31]): 10.7 h
Tmax [32]: 2.33 h
Activity (BXPC-3): Non-toxic
Activity (CCRF-CEM [33]): Non-toxic
half-life [8]: 9 h
AUC(0-t) at 24 h [34]: 340 ng·h/mL

SMILES: COc1nc(N)nc2c1ncn2[C@@H]1O[C@@H]2COP(=O)(OCc3ccccc3)O[C@H]2[C@@]1(C)F (some centres undefined)
CC90 [2]: > 10000 nM
EC90 (Hepatitis C virus [3]): 70 nM

SMILES: CC(C)Oc1nc(N)nc2c1ncn2[C@@H]1O[C@@H]2COP(=O)(OC3CCC3)O[C@H]2[C@@]1(C)F (some centres undefined)
half-life [1]: 8.6 h
CC90 [2]: > 100000 nM
EC90 (Hepatitis C virus [3]): 50 nM
half-life [4]: 6.3 h
half-life [5]: 11.7 h
half-life [6]: 4.2 h
EC90 (Hepatitis C virus [7]): 224 nM
half-life [8]: 2.6 h

SMILES: CCOP1(=O)OC[C@H]2O[C@@H](n3cnc4c(OC)nc(N)nc43)[C@](C)(F)[C@@H]2O1 (some centres undefined)
CC90 [2]: > 10000 nM
EC90 (Hepatitis C virus [3]): 35.8 nM

SMILES: COc1nc(N)nc2c1ncn2[C@@H]1O[C@@H]2COP(=O)(OC3CCCCC3)O[C@H]2[C@@]1(C)F (some centres undefined)
CC90 [2]: > 10000 nM
EC90 (Hepatitis C virus [3]): 39 nM

Now from value to compound, other results behind:

EC90 (Hepatitis C virus [3]): 180 nM
SMILES: COc1nc(N)nc2c1ncn2[C@@H]1O[C@@H]2COP(=O)(O)O[C@H]2[C@@]1(C)F
CC90 [2]: > 100000 nM

EC90 (Hepatitis C virus [3]): > 10000 nM
SMILES: CC(C)Oc1nc(N)nc2c1ncn2[C@@H]1O[C@@H]2COP(=O)(O)O[C@H]2[C@@]1(C)F

half-life [1]: 5.6 h
EC90 (Hepatitis C virus [3]): 25.8 nM
half-life [4]: > 24 h
half-life [5]: > 24 h
half-life [6]: > 20 h
EC90 (Hepatitis C virus [7]): 680 nM
half-life [8]: > 20 h
SMILES: COc1nc(N)nc2c1ncn2[C@@H]1O[C@@H]2COP(=O)(OC(C)C)O[C@H]2[C@@]1(C)F (some centres undefined)
CC90 [2]: > 100000 nM
